Results taken from article PMC7316143 (Drug testing and analysis, 2018).

Legend:
Format in all cases: biochemical
NET [1] = target: T1, NET (Rattus norvegicus, UniProt Q63380); test: [3H]norepinephrine uptake inhibition at NET in rat brain synaptosomes; settings: [3H]Norepinephrine uptake at NET IC50, rat brain synaptosomes, 10 nM [3H]norepinephrine; mean ± SD, N=3
NET [2] = target: T1, NET; test: [3H]MPP+ release at NET in rat brain synaptosomes; settings: for Emax: read-out: Release at NET % Emax
SERT [3] = target: T2, SERT (Rattus norvegicus, UniProt P31652); test: [3H]5-HT uptake inhibition at SERT in rat brain synaptosomes
T2 sequence (P31652 whole entry): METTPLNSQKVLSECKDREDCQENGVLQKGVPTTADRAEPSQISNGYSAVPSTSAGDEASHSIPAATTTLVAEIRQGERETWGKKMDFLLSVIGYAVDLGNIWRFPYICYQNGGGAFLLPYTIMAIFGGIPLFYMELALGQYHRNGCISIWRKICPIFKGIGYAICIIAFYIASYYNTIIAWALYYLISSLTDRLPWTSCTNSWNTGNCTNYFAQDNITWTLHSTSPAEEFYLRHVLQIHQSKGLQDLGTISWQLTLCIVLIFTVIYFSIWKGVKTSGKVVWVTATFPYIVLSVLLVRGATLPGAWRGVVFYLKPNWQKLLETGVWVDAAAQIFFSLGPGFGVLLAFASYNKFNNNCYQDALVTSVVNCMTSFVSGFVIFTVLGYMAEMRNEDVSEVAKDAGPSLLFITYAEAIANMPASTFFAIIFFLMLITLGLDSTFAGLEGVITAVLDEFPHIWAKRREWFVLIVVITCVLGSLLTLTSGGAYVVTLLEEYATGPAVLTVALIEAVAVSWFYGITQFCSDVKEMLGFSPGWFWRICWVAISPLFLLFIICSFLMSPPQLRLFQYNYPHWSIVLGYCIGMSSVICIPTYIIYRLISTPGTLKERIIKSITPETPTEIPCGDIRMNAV

SERT [4] = target: T2, SERT; test: [3H]5-HT release at SERT in rat brain synaptosomes; settings: for Emax: read-out: Release at SERT % Emax
DAT [5] = target: T3, DAT (Rattus norvegicus, UniProt P23977); test: [3H]dopamine uptake inhibition at DAT in rat brain synaptosomes; settings: for IC50: [3H]Dopamine uptake at DAT IC50, rat caudate synaptosomes, 5 nM [3H]dopamine, mean ± SD, N=3; for DAT/SERT ratio (uptake inhibition): (DAT IC50^-1)/(SERT IC50^-1), higher value indicates greater DAT selectivity
T3 sequence (P23977 whole entry): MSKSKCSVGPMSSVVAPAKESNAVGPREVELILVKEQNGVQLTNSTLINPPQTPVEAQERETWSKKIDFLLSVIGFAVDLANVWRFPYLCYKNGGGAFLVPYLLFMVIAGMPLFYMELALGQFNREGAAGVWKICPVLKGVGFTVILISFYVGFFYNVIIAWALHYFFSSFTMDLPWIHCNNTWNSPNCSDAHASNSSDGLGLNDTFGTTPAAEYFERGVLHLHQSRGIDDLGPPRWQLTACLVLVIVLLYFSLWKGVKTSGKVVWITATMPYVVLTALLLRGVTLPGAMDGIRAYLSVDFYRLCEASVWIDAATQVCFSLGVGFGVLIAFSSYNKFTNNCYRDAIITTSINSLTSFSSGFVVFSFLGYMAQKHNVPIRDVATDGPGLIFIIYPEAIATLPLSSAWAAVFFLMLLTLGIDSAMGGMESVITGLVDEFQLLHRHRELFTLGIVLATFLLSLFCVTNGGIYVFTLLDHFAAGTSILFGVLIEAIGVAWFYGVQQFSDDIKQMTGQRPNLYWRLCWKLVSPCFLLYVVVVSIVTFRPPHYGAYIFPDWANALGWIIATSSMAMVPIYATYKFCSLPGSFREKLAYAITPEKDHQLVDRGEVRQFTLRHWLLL

DAT [6] = target: T3, DAT; test: [3H]MPP+ release at DAT in rat brain synaptosomes; settings: for Emax: read-out: Release at DAT % Emax; for DAT/SERT ratio (release): (DAT EC50^-1)/(SERT EC50^-1), higher value indicates greater DAT selectivity

T1 sequence (Q63380 1-617): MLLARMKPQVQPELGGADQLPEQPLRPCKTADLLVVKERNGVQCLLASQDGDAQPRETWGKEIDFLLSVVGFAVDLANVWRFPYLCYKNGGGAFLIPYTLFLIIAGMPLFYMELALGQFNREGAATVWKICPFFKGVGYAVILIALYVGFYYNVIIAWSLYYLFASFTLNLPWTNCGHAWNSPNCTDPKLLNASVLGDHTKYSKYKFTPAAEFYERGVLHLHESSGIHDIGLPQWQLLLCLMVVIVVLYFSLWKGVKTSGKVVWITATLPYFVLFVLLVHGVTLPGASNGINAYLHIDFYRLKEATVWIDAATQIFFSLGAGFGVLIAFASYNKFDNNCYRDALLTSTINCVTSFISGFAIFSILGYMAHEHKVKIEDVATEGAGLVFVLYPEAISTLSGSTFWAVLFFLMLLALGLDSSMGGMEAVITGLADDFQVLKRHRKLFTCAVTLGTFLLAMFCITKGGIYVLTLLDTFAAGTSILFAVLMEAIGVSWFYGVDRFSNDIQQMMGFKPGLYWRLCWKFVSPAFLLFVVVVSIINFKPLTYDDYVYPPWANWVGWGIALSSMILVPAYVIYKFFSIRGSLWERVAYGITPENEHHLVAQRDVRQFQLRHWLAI

CC1NCCOC1c1ccccc1 (stereo not shown) [Phenmetrazine, 3-methyl-2-phenylmorpholine, reference compound]
IC50 (NET [1]): 1160 ± 197 nM
EC50 (NET [2]): 29 ± 4 nM
Emax (NET [2]): 95%
IC50 (SERT [3]): 3570 ± 836 nM
EC50 (SERT [4]): > 10000 nM
releaser activity at SERT (in words) (SERT [4]; rat brain synaptosomes): negligible activity
IC50 (DAT [5]): 933 ± 57 nM
EC50 (DAT [6]): 70 ± 9 nM
Emax (DAT [6]): 101%

Cc1ccc(C2OCCNC2C)cc1 (stereo not shown) [4-MPM, 3-Methyl-2-(4-methylphenyl)morpholine]
IC50 (NET [1]): 1930 ± 392 nM
EC50 (NET [2]): 62 ± 9 nM
Emax (NET [2]): 90%
IC50 (SERT [3]): 408 ± 17 nM
fold more potent than 2-MPM and phenmetrazine at SERT (uptake inhibition) (SERT [3]; relative to 2-MPM and phenmetrazine): ~10 fold
EC50 (SERT [4]): 86 ± 12 nM
Emax (SERT [4]): 88%
DAT/SERT ratio (uptake inhibition) (DAT [5]): 0.2
IC50 (DAT [5]): 1930 ± 207 nM
fold more potent than 2-MPM at DAT (uptake inhibition) (DAT [5]; relative to 2-MPM): about 3.5 fold
EC50 (DAT [6]): 227 ± 30 nM
DAT/SERT ratio (release) (DAT [6]): 0.4
Emax (DAT [6]): 99%

Cc1cccc(C2OCCNC2C)c1 (stereo not shown) [3-MPM, 3-Methyl-2-(3-methylphenyl)morpholine]
IC50 (NET [1]): 5210 ± 1650 nM
EC50 (NET [2]): 509 ± 73 nM
Emax (NET [2]): 90%
IC50 (SERT [3]): > 10000 nM
EC50 (SERT [4]): 5380 ± 947 nM
Emax (SERT [4]): 111%
IC50 (DAT [5]): > 10000 nM
EC50 (DAT [6]): 1320 ± 218 nM
DAT/SERT ratio (release) (DAT [6]): 4.1
Emax (DAT [6]): 110%

Cc1ccccc1C1OCCNC1C (stereo not shown) [2-MPM, 3-Methyl-2-(2-methylphenyl)morpholine]
IC50 (NET [1]): 2600 ± 633 nM
EC50 (NET [2]): 102 ± 12 nM
Emax (NET [2]): 91%
IC50 (SERT [3]): 4010 ± 317 nM
EC50 (SERT [4]): 1760 ± 336 nM
Emax (SERT [4]): 101%
DAT/SERT ratio (uptake inhibition) (DAT [5]): 0.6
IC50 (DAT [5]): 6590 ± 1310 nM
EC50 (DAT [6]): 374 ± 38 nM
DAT/SERT ratio (release) (DAT [6]): 4.7
Emax (DAT [6]): 104%
